Source: patent EP0558104B1, “1,5-Benzodiazepine derivatives and their use in medicine” (GLAXO WELLCOME S.p.A., priority 1992, dated 1993)
Like-named read-outs stand apart in the source and are kept apart here.

Legend:
CCK-B receptor = CCK-B receptor (Cavia porcellus, UniProt H0VZC5); assay: CCK receptor binding, guinea pig cortex assay; parameters: CCK-B receptor (guinea pig cortex assay); from tissue; host or cells: guinea pig cortex
Description: The greater affinity of the compounds of the invention for the CCK-B receptor over the CCK-A receptor has also been established using the CCK receptor binding assays described by G Dal Fornos et al., J. Pharmcol. Exp & Ther. 261, 1056-1063, 1992.
The binding affinity of the compounds of the invention for the CCK-A receptor (Pancreas Assay) and CCK-B receptor (guinea pig cortex assay) was determined using the procedure of G Dal Forno et al J. Pharmacol. Exp & Ther. 261 - 1056-1063. The pKi values determined with respresentative compounds of invention were as follows: […]

CCK-A receptors = target: T1, CCK-A receptors (Cavia porcellus, UniProt Q63931); assay: CCK-A antagonist activity, guinea pig isolated ileum longitudinal muscle myenteric plexus preparation; type: cell-based
T1 construct: guinea pig isolated ileum longitudinal muscle myenteric plexus preparation; from tissue; host or cells: guinea pig isolated ileum longitudinal muscle-myenteric plexus
T1 sequence (Q63931 1-430): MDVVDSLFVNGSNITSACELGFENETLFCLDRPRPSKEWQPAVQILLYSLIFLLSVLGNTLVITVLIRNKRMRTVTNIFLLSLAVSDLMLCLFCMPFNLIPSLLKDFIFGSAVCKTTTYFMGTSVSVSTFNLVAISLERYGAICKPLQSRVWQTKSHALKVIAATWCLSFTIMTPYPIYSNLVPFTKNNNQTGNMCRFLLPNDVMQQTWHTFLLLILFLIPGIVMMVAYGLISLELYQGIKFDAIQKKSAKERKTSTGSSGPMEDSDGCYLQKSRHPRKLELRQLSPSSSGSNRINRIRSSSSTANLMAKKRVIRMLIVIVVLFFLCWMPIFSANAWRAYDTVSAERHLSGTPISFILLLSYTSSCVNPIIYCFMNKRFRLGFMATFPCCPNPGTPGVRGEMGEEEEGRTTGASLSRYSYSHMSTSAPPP
Description: The preparation and use of guinea-pig isolated ileum longitudinal muscle-myenteric plexus has been described by K-H Buchheit et al in Nauyn-Schmeideberg's Arch. Pharmacol, (1985), 329, p3641 and by V.L. Lucaites et al (1991) in J. Pharmacol. Exp. Ther., 256, 695-703.
The CCK-A antagonist and CCK-B antagonist activites of compounds of the invention were determined using the guinea pig isolated ileum longitudinal muscle myenteric plexus preparation. The compounds were tested using the procedure G Dal Forno et al J. Pharmacol. Exp & Ther. 261 - 1056-1063 1992 and the pKb value for each compound was determined.

mice [1] = assay: Anxiolytic activity in mice (black-white box test); type: in vivo
Excerpt: (§1) For example in mice in the black-white box test and in the rat social interaction model.

rats = assay: Tolerability after oral administration to rats; type: in vivo; conditions: given orally to rats at doses at which the compound exhibits anxiolytic activity
Excerpt: (§2) The compounds of the invention are essentially non-toxic and therapeutically useful doses.

mice [2] = assay: Tolerability after oral administration to mice; type: in vivo; conditions: given orally to mice at doses at which the compound exhibits anxiolytic activity
Excerpt: as §2

rat = assay: Anxiolytic activity in rats (rat social interaction model); type: in vivo
Excerpt: as §1

[3] = guinea pig isolated ileum longitudinal muscle myenteric plexus, inhibition of contractile activity of CCK-8, read-out: pKb CCK-A (converted)

Chain of CCK-B receptor (H0VZC5 entry or part of it): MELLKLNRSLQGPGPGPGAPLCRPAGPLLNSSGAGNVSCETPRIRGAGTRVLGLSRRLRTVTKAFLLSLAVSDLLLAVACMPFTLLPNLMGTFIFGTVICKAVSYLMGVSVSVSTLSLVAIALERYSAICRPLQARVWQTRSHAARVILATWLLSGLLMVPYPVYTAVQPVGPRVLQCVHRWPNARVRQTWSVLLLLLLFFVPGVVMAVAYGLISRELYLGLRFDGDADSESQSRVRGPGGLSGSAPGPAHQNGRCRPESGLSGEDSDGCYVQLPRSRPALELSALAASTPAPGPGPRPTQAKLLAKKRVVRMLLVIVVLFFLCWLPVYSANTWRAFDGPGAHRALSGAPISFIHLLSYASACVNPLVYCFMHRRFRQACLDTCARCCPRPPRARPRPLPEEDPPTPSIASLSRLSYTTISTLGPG

SMILES | Ki (CCK-B receptor) [nM] | other results
CCOC(=O)c1cccc(NC(=O)NC2C(=O)N(CC34CC5CC(CC(C5)C3)C4)c3ccccc3N(c3ccccc3)C2=O)c1 (centres unmarked) [Example 41, N-[1-(1-Adamantylmethyl)-2,4-dioxo-5-phenyl-2,3,4,5-tetrahydro-1H-1,5-benzodiazepin-3-yl]-N'-(3-ethoxycarbonylphenyl)urea] | 2.95 | 
O=C(Nc1ccccc1)NC1C(=O)N(CC23CC4CC(CC(C4)C2)C3)c2ccccc2N(c2ccccc2)C1=O (centres unmarked) [Example 14, N-[1-(1-Adamantyl)methyl-2,4-dioxo-5-phenyl-2,3,4,5-tetrahydro-1H-1,5-benzodiazepin-3-yl]-N'-phenylurea] |  | Kb (CCK-A receptors): 158 nM
CC(C)CCN1C(=O)C(NC(=O)Nc2ccccc2)C(=O)N(c2ccccc2)c2cc(Cl)c(Cl)cc21 (centres unmarked) [Example 11, N-[7,8-dichloro-2,4-Dioxo-1-(3-methylbut-1-yl)-5-phenyl-2,3,4,5-tetrahydro-1H-1,5-benzodiazepin-3-yl]-N'-phenylurea] | 9.77 | 
O=C(Nc1ccccc1)NC1C(=O)N(CC2CC3C=CC2C3)c2ccccc2N(c2ccccc2)C1=O (centres unmarked) [Example 31, N-[1-(Bicyclo [2.2.1]-5-heptene-2-ylmethyl)-2,4-dioxo-5-phenyl-2,3,4,5-tetrahydro-1H-1,5-benzodiazepin-3yl]-N'-phenylurea] | 1.51 | 
O=C(Nc1ccccc1)NC1C(=O)N(CC23CC4CC(CC(C4)C2)C3)c2ccccc2N(c2ccccc2)C1=O (single isomer, unassigned; (+)) [Example 45, (+)-N-[1-(Adamantanmethyl)-2,4-dioxo-5-phenyl-2,3,4,5-tetrahydro-1H-1,5benzodiazepin-3-yl]-N'-phenylurea] |  | anxiolytic activity (mice [1]): exhibits anxiolytic activity; untoward effects (rats): no untoward effects; untoward effects (mice [2]): no untoward effects; anxiolytic activity (rat): exhibits anxiolytic activity; Kb (CCK-A receptors): 1260 nM
CC(C)CCN1C(=O)C(NC(=O)Nc2cccc(N(C)C)c2)C(=O)N(c2ccccc2F)c2ccccc21 (centres unmarked) [Example 4, N-[2,4-dioxo-5-(2-fluorophenyl)-1-(3-methylbut-1-yl)-2,3,4,5-tetrahydro-1H-1,5-benzodiazepin-3-yl]-N'-(3-dimethylamino)phenylurea] | 0.251 | Kb (CCK-A receptors; [3]): 3160 nM
CC(C)(C)C(O)CN1C(=O)C(NC(=O)Nc2ccccc2)C(=O)N(c2ccccc2F)c2ccccc21 (centres unmarked) [Example 7A, N-[1-(3,3-Dimethyl-2-hydroxybut-1-yl)-2,4-dioxo-5-(2-fluorophenyl)-2,3,4,5-tetrahydro-1H-1,5-benzodiazepin-3-yl]-N'-phenylurea] | 1.95 | 
CC(C)(C)CCN1C(=O)C(NC(=O)Nc2ccccc2)C(=O)N(c2ccccc2)c2ccccc21 (centres unmarked) [Example 16, N-[1-(3,3-Dimethylbutyl)-2,4-dioxo-5-phenyl-2,3,4,5-tetrahydro-1H-1,5-benzodiazepin-3-yl]-N'-phenylurea] | 0.676 | 
O=C(Nc1cccc([N+](=O)[O-])c1)NC1C(=O)N(CC23CC4CC(CC(C4)C2)C3)c2ccccc2N(c2ccccc2)C1=O (centres unmarked) [Example 39, N-[1-(1-Adamantylmethyl)-2,4-dioxo-5-phenyl-2,3,4,5-tetrahydro-1H-1,5-benzodiazepin-3-yl]-N'-(3-nitrophenyl)urea] | 1.91 | 
CC(C)CCN1C(=O)C(NC(=O)Nc2ccccc2)C(=O)N(c2ccccc2)c2ccccc21 (centres unmarked) [Example 25, N-[2,4-Dioxo-5-phenyl-1-(3-methylbut-1-yl)-2,3,4,5-tetrahydro-1H-1,5-benzodiazepin-3-yl]-N'-phenylurea] |  | Kb (CCK-A receptors; [3]): > 1000 nM
CC(C)CCN1C(=O)C(NC(=O)Nc2ccccc2)C(=O)N(c2ccccc2)c2cc(Cl)ccc21 (centres unmarked) [Example 9, N-[7-Chloro-2,4-dioxo-1-(3-methylbut-1-yl)-5-phenyl-2,3,4,5-tetrahydro-1H-1,5-benzodiazepin-3-yl]-N'-phenylurea] | 4.9 | 
CN(C)c1ccc(NC(=O)NC2C(=O)N(CCC3CCCC3)c3ccccc3N(c3ccccc3F)C2=O)cc1 (centres unmarked) [Example 30, N-[1-(2-cyclopentyl-ethyl)-2,4-dioxo-5-(2-fluorophenyl)-2,3,4,5-tetrahydro-1H-1,5-benzodiazepin-3-yl]-N'-[4-(dimethylamino)phenyl]urea] | 0.724 | 
